Patent US20090098589A1 (priority 2006, published 2009)

Key:
Type in all cases: biochemical
[1] = target: T1, E. coil phytase (Phyzyme XP^R) (Escherichia coli, UniProt P07102); test: Phosphate release from substrate by enzyme, microtitre plate, molybdate detection; settings: 10 mM substrate, pH 5.5, 1 h, 37° C.
T1 construct: purchased
Procedure: (§1) Enzymatic assays were carried out in microtitre plates in 100 μl of reaction mixture. The reaction mixture for acid phytases and phosphatases included: 10 mM of substrate in 200 mM sodium acetate buffer, pH 5.5 containing 0.8 mM CaCl2. For alkaline phytases and phosphatases the same conditions were used except sodium acetate buffer was replaced with 200 mM Tris*HCl buffer, pH 7.5. The reactions were allowed to proceed for 1 h at 37° C. after which time the released phosphate was measured by a modification of a known procedure (Heinonen J. K., Lahti R. J. Anal Biochem. 113 (2), 313-317 (1981)). Briefly, 200 pLI of a freshly prepared AMM solution ([…], 15 mM ammonium molybdate and acetone—1:1:2) was added to the 100 μl reaction mixture in each microtitre plate well. The absorbance at 390 nm was measured not earlier than 10 min and not later than 30 min after addition of the AMM reagent. The amount of phosphate was determined by building a calibration curve with phosphate solutions of known concentrations.
(§2) Both phytases and phosphatases catalyse the hydrolysis of phosphoesters. Thus, the difference between these two groups of enzymes is quantitative rather than qualitative and can be defined as the relative efficiency in hydrolysis of phytate and simple monophosphoesters such as e.g. glucose 6-phosphate or fructose 6-phosphate. Phosphatases tend to be relatively inefficient in hydrolysing phytate, and, conversely, most phytases hydrolyse mono-substituted sugar phosphates inefficiently. To test whether polyphosphorylated polyhydroxybenzenes can be used as mimics of phytate we have tested phosphate release from hexaphospho-benzenehexaol and fructose 6-phosphate by several different phytases and phosphatases. Phytases from Aspergillus niger (Natuphos^R), Escherichia coli (Phyzyme XP^R) and Peniophora lycii (Ronozyme^R) as well as potato acid phosphatase were assayed at pH 5.5 while alkaline bacterial phosphatase calf intestinal phosphatase and shrimp phosphatase were assayed at pH 7.5.

Shrimp phosphatase = test: as above; settings: 10 mM substrate, pH 7.5, 1 h, 37° C.
Procedure: as §1, §2

Potato acid phosphatase = test: as above; settings: 10 mM substrate, pH 5.5, 1 h, 37° C.
Procedure: as §1, §2

[2] = system: Peniophora lycii phytase (Ronozyme^R); test: as above; settings: 10 mM substrate, pH 5.5, 1 h, 37° C.
Procedure: as §1, §2

[3] = target: Bacterial alkaline phosphatase (Escherichia coli, UniProt P00634); test: as above; settings: 10 mM substrate, pH 7.5, 1 h, 37° C.
Procedure: as §1, §2

[4] = target: T2, A. niger phytase (Natuphos^R) (Aspergillus niger, UniProt P34752); test: as above; settings: 10 mM substrate, pH 5.5, 1 h, 37° C.
T2 construct: purchased
Procedure: as §1, §2

[5] = system: Calf intestine phosphatase; test: as above; settings: 10 mM substrate, pH 7.5, 1 h, 37° C.
Procedure: as §1, §2

all tested phytases = test: Phosphate release from substrate, summary for all tested phytases; settings: compared with fructose 6-phosphate
Procedure: as §1
(§3) Both phytases and phosphatases catalyse the hydrolysis of phosphoesters. Thus, the difference between these two groups of enzymes is quantitative rather than qualitative and can be defined as the relative efficiency in hydrolysis of phytate and simple monophosphoesters such as e.g. glucose 6-phosphate or fructose 6-phosphate. […]

typical phosphatases = test: Phosphate release from substrate, summary for typical phosphatases; settings: all tested typical phosphatases, compared with fructose 6-phosphate
Procedure: as §1, §3

Sequence of Bacterial alkaline phosphatase (P00634 22-471): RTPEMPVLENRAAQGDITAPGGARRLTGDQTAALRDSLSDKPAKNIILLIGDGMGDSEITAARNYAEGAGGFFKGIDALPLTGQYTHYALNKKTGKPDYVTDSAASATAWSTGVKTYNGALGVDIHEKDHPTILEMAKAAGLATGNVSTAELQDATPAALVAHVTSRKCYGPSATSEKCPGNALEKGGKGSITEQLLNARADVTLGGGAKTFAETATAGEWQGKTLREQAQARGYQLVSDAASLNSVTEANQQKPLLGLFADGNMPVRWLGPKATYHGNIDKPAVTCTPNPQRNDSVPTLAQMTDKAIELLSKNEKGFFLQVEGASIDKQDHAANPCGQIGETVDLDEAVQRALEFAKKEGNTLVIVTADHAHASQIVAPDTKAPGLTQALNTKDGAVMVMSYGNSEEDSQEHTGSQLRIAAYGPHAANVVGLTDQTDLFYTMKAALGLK
T1 sequence (P07102 23-432): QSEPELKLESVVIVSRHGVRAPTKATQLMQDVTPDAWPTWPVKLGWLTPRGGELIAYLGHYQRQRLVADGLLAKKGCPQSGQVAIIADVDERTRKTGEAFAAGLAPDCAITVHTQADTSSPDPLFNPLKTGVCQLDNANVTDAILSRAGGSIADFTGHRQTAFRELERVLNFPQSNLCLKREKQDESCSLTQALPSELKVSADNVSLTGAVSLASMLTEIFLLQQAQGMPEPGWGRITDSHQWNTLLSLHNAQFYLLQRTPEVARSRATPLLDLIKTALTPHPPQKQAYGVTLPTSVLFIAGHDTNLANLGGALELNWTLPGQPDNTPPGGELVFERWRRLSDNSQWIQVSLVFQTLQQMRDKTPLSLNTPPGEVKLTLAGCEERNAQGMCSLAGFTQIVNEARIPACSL
T2 sequence (P34752 24-467): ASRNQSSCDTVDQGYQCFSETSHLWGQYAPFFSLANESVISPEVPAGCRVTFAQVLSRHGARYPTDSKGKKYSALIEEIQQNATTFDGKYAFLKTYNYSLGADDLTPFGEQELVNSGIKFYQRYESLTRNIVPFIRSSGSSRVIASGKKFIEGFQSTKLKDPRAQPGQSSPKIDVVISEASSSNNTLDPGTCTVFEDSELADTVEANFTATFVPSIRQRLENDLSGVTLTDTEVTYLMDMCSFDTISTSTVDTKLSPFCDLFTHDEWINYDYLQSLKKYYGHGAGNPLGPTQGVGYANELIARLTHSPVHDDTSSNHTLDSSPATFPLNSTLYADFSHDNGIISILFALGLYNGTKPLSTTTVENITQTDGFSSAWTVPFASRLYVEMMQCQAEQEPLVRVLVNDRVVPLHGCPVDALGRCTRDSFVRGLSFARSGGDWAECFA

SMILES | Ratio of phosphate-releasing activities with the substrate and fructose 6-P [1] | Ratio of phosphate-releasing activities with the substrate and fructose 6-P (Shrimp phosphatase) | Ratio of phosphate-releasing activities with the substrate and fructose 6-P (Potato acid phosphatase) | Ratio of phosphate-releasing activities with the substrate and fructose 6-P [2] | Ratio of phosphate-releasing activities with the substrate and fructose 6-P [3] | Ratio of phosphate-releasing activities with the substrate and fructose 6-P [4] | Ratio of phosphate-releasing activities with the substrate and fructose 6-P [5] | Quality as substrate for all tested phytases (in words) (all tested phytases) | Quality as substrate for typical phosphatases (in words) (typical phosphatases)
O=P(O)(O)Oc1cc(OP(=O)(O)O)cc(OP(=O)(O)O)c1 | 500 | 3.8 | 3.9 | 250 | 1.0 | 280 | 1.0 | good substrate | good substrate
O=P(O)(O)Oc1c(OP(=O)(O)O)c(OP(=O)(O)O)c(OP(=O)(O)O)c(OP(=O)(O)O)c1OP(=O)(O)O [benzenehexaol hexaphosphate, Benzenehexaol hexaphosphate] | 122 | 0.1 | 0.23 | 2.7 | 0.01 | 250 | 0.01 | much better substrate than fructose 6-phosphate | the opposite is true
